Data on one substance can be found in patent US9051345B2, “Metalloinsertor complexes targeted to DNA mismatches” (CALIFORNIA INSTITUTE OF TECHNOLOGY, priority 2011, dated 2015).

For test [1], the system named is HCT116N and HCT116O cells. Description: Cell cycle distribution flow cytometry assay (PI). It counts as cell-based, human. As to conditions: 20 μM, 24 and 48 hours. As for the experimental part: Cells were harvested from adherent culture by trypsinization and washed with cold PBS. The resultant pellet was resuspended in PBS (chilled to 4° C.), and ice-cold ethanol was added dropwise to a final concentration of 70% (v/v), with continuous gentle agitation. Cells were fixed at 4° C. for 30 minutes and stored for up to one week. Prior to analysis, the fixed cells in 70% ethanol were diluted 1:3 in cold PBS and centrifuged at 1,400×g for 5 minutes. The resultant pellet was washed twice and resuspended in ice-cold PBS. Ribonuclease was added to a final concentration of 30 μg/mL and the cells were incubated overnight at 4° C. The next day propidium iodide was added to a final concentration of 20 μg/mL and cells were analyzed by flow cytometry. Data analysis was performed using the FloJo software package (v 8.7.1).
For orientation: Flow cytometry measures light scatter and fluorescence of single cells or particles in a stream.

The next test relates to HCT116O cells. Kind of test: Cell death mode flow cytometry assay (YO-PRO-1 / PI dye exclusion). Format: cell-based, human. The note with it: for mode of cell death: YO-PRO-1 and PI, HCT116O versus HCT116N. From the text: To characterize the cell death occurring in response to rhodium treatment, a dye exclusion flow cytometry assay was used as described in Idziorek et al., 1995 J. Immunol. Methods, 185, 249-258, the entire contents of which is incorporated herein by reference. The assay differentiates between live cells, dead cells, and cells undergoing apoptosis or necrosis through concurrent staining with propidium iodide (a dead cell permeable dye) and YO-PRO-1 (an apoptotic cell permeable dye). By plotting the fluorescence of the YO-PRO-1 channel against the PI channel, a pattern emerges. Healthy cells are seen in the lower lefthand corner of the plot in FIGS. 36A-36D. […] Dead cells admit both dyes and are therefore seen in the upper righthand quadrant of the image. Upon flow cytometry analysis, cells can be classified as live, apoptotic, necrotic, or dead by defining regions in the fluorescence plane corresponding to each category.
The HCT116N and HCT116O cell lines were incubated with 0-25 μM of [Rh(HDPA)2chrysi]^3+ for 24-72 hours. After harvesting the cells and staining with both PI and YO-PRO-1, the cells were analyzed by flow cytometry to obtain raw fluorescence data. Representative data for 20 μM rhodium treatment for 72 hours are shown. YO-PRO-1 fluorescence is shown on the y-axis, and PI fluorescence is shown on the x-axis. The raw data were analyzed by gating the fluorescence events into one of four categories, depending on the fluorescence levels of the two dyes. FIGS. 37A-37B also show histograms of live, apoptotic, necrotic, and dead cells for the HCT116N and HCT116O cell lines based on the flow cytometry. Treatment with the indicated rhodium complex was either 15 or 20 µM [Rh(HDPA)2chrysi]^3+ for 72 hours.
After 24, 48, or 72 hour incubation with the selected rhodium complex, cells were harvested from adherent culture by trypsinization and washed with cold PBS, and centrifuged at 2,000 rpm for 5 minutes. The resultant pellets were resuspended in PBS to a concentration of 10^6 cells/mL and stained with propidium iodide to a final concentration of 1 μg/mL and with YO-PRO-1 (an apoptotic cell permeable dye) to a final concentration of 200 nM for 30 minutes prior to analysis by flow cytometry.

Take [Rh(HDPA)2chrysi]^3+: the “effect on the cell cycle” value in test [1] is “disruption of the cell cycle”. For the same substance, in the test with HCT116O cells (20 μM, 72 hours, untreated 79±3.8%), the “live cells HCT116O after treatment” value turned out to be 37±5.3%. In addition, the “mode of cell death” value with HCT116O cells was “induces necrosis preferentially in the MMR-deficient HCT116O cell line”; in the test with HCT116O cells (listed as [Rh(HDPA)2chrysi]3^+) it was “necrotic rather than apoptotic pathway”. Further, the “change in percentage of cells in the apoptotic region” value in the test with HCT116O cells (either cell line) is “no significant change”.
